The values below come from patent US20230142274A1 (SIMCERE PHARMACEUTICAL CO., LTD., priority 2020, published 2023).

Holding throughout (assay type): in vitro ADME
A short description of data set [1]: Metabolic stability in liver microsomes (human). The note with it: pH 7.4; Human being liver microsomes 0.5 mg/mL, compound 1 μM, NADPH 1 mM, 37° C. As to the method: (§1) 1. Source of liver microsomes: human liver microsomes (Corning 452117), CD-1 mouse liver microsomes (XENOTECH M1000)
(§2) 1. Formulation of 100 mM phosphate buffer solution (PBS): 7.098 g of Na2HPO4 was weighed and ultrasonically dissolved in 500 mL of pure water to form Solution A. 3.400 g of KH2PO4 was weighed and ultrasonically dissolved in 250 mL of pure water to form Solution B. Solution A was placed in a stirrer and Solution B was slowly added until the pH value reached 7.4, thus formulating 100 mM PBS buffer solution.
(§3) The reaction system was formulated according to Table 3 below.
(§4) 3. The reaction system was placed in a water bath at 37° C. and pre-incubated for 10 minutes. 40 μL of 10 mM NADPH solution (NADPH was dissolved in 100 mM phosphate buffer solution) was added into the reaction system, and the final concentration of NADPH was 1 mM. 40 μL of Phosphate buffer solution was used instead of the NADPH solution as a negative control. The negative control was used to rule out the influence caused by the chemical stability of the compounds per se.
(§5) 4. The reaction system was added with 4 μL of 100 μM the compound of the present disclosure and Verapamil (the positive control compound) (DMSO as the vehicle), so that the reaction was initiated. The final concentration of the compound was 1 μM.
(§6) 5. At 0.5, 15, 30, 45 and 60 minutes, after being well mixed in a vortex oscillator, 50 μL of the incubated samples were taken out respectively, and the reaction was terminated with ice acetonitrile (4-fold) containing an internal standard. The samples were centrifuged at 3220 g for 45 minutes. After the centrifugation, 90 μL of the supernatants were transferred to a sample plate and mixed well with 90 μL of ultrapure water for LC-MS/MS analysis.
(§7) All data were calculated by Microsoft Excel software. Peak areas were determined from the extracted ion chromatograms. The in-vitro half-life (t1/2) of the parent drug was determined by the linear fitting of the natural logarithm of the elimination percentage of the parent drug versus time.
(§8) The in-vitro half-life (t1/2) was calculated from the slope: […]

A further data set has as its system CD-1 mouse plasma. The data set is described as follows: Plasma protein binding rate assay (equilibrium dialysis). The note with it: compound 1 μM, equilibrium dialysis 6 hours at 37° C. The procedure: 1. CD-1 mouse plasma (BioIVT)
1. Formulation of a buffer solution containing 100 mM sodium phosphate and 150 mM NaCl: An alkaline solution containing Na2HPO4 (14.2 g/L) and NaCl (8.77 g/L) was formulated with ultrapure water. An acidic solution containing NaH2PO4 (12.0 g/L) and NaCl (8.77 g/L) was formulated with ultrapure water. The alkaline solution was titrated with the acidic solution until the pH value was 7.4, thus formulating the buffer solution containing 100 mM sodium phosphate and 150 mM NaCl.
2. Preparation of dialysis membrane: The dialysis membrane was immersed in ultrapure water for 60 minutes to separate the membrane into two pieces, then immersed in 20% ethanol for 20 minutes, and finally immersed in a buffer for dialysis for 20 minutes.
3. Preparation of plasma: Frozen plasma was thawed rapidly at room temperature. Thereafter, the plasma was centrifuged at 3220 g for 10 minutes at 4° C. to remove clots, and the supernatant was collected into a new centrifuge tube. The pH values of plasma were measured and recorded. The plasma with a pH value of 7 to 8 was used.
4. Formulation of compound-containing plasma samples: A 10 mM stock solution of the compound of the present disclosure or the positive control compound was diluted with DMSO to obtain a 200 μM working solution. 3 μl of the 200 μM working solution of the compound was added into 597 μl of mouse plasma to obtain a plasma sample with a final concentration of 1 μM.
5. Steps of equilibrium dialysis: The dialysis device was assembled according to the operating instructions. 120 μL of a plasma sample containing 1 μM compound was added on one side of the dialysis membrane, and an equal volume of dialysate (phosphate buffer solution) was added on the other side. Duplicate samples were set in the experiment. The dialysis plate was sealed and placed in an incubation device where the samples were incubated at 37° C. in an atmosphere containing 5% CO2 for 6 hours with a rotational speed of about 100 rpm. After the incubation was complete, the sealing membrane was removed. 50 μl of samples were respectively aspirated from the buffer solution side and the plasma side of each well and transferred into different wells of a new plate. 50 μl of blank plasma was added into the sample obtained from the phosphate buffer solution side, and an equal volume of blank phosphate buffer solution was added into the plasma sample, followed by the addition of 300 μl of acetonitrile containing the internal standard to precipitate protein. The sample was vortexed for 5 minutes and centrifuged at 3220 g for 30 minutes at 4° C. 100 μl of the supernatant was aspirated and transferred to the sample plate, mixed well with 100 μL of ultrapure water, and used for LC-MS/MS analysis.
The peak areas of the compounds on the buffer solution side and the plasma side were determined. The formula for calculating the plasma protein binding rate of the compound was as follows:
% Free rate=(the ratio of the peak area of the compound to the peak area of the internal standard on the buffer solution side/the ratio of the peak area of the compound to the peak area of the internal standard on the plasma side)×100
% Binding rate=100−% free rate
(In general: In equilibrium dialysis free small molecules cross a membrane that holds back macromolecules.)

Data set [2] can be described thus: Metabolic stability in liver microsomes (CD-1 mouse). The settings on record: pH 7.4; CD-1 mouse liver microsomes 0.5 mg/mL, compound 1 μM, NADPH 1 mM, 37° C. As to the method: as §1, §2, §3, §4, §5, §6, §7, §8
For orientation: Liver microsomes are a subcellular fraction often used to study metabolism.

Consider `CC(C)OC(=O)N[C@H]1CC[C@H](c2ncc(-c3ccc(Nc4n[nH]c5ccccc45)cc3S(=O)(=O)C3CC3)s2)CC1` [Example 56, isopropyl trans-(4-(5-(4-((1H-indazol-3-yl)amino)-2-(cyclopropylsulfonyl)phenyl)thiazol-2-yl)cyclohexyl)carbamate], for which the half-life – broadly, the time needed for the level to fall by half in the phase considered – at 1 μM is 2.98 h in data set [1] and 1.82 h in data set [2]. Besides, the “% Binding Rate” value in the data set on CD-1 mouse plasma is listed as 97%.

Turning to `Cc1cc(Nc2ccc(-c3cnc([C@H]4CC[C@H](NC(=O)OC(C)C)CC4)s3)c(S(=O)(=O)C3CC3)c2)nn1C` [Example 49, isopropyl trans-(4-(5-(2-(cyclopropylsulfonyl)-4-((1,5-dimethyl-1H-pyrazol-3-yl)amino)phenyl)thiazol-2-yl)cyclohexyl)carbamate], the half-life at 1 μM in data set [1] was 0.933 h; in data set [2] it was 2.08 h. In addition, the “% Binding Rate” value with CD-1 mouse plasma came out at 97%.

Regarding `CC(C)OC(=O)N[C@H]1CC[C@H](c2ncc(-c3ccc(Nc4cc5ccccn5n4)cc3S(=O)(=O)C3CC3)s2)CC1` [Example 57, isopropyl trans-(4-(5-(2-(cyclopropylsulfonyl)-4-(pyrazolo[1,5-a]pyridin-2-ylamino)phenyl)thiazol-2-yl)cyclohexyl)carbamate], the half-life at 1 μM was found to be 0.933 h in data set [1] and 2.1 h in data set [2]. The “% Binding Rate” value with CD-1 mouse plasma amounted to 99.9%^.

`Cc1cc(Nc2ccc(-c3cnc([C@H]4CC[C@H](NC(=O)OC(C)C)CC4)s3)c(P3(=O)CCC3)c2)n[nH]1` [Example 103, isopropyl trans-(4-(5-(4-((5-methyl-1H-pyrazol-3-yl)amino)-2-(1-oxophosphetan-1-yl)phenyl)thiazol-2-yl)cyclohexyl)carbamate]: the half-life at 1 μM in data set [1] and in data set [2] was greater than 8.33 h throughout. In addition, the “% Binding Rate” value in the data set with CD-1 mouse plasma came out at 98%.
